For assay [1], the system named is MIA PaCa-2 pancreatic cancer cell line. The assay is described as follows: Cell proliferation assay (DAPI). Type of assay: cell-based. The settings on record: Homo sapiens; for inhibition at 10 µM: read-out: % Inhibition of cell proliferation, MIA PaCa-2 % inh. The protocol: Cell lines: Human NSCLC cells NCI-H1975 and NCI-H1299, and tumor-derived pancreatic cancer cell lines Panc-1, MIA-PACA2, and BxPC3, were all purchased from American Type Culture Collection and grown in complete RPMI medium (BxPC3, NCI-H1975 and NCI-H1299) or DMEM-High Glucose (Panc1 and MIA-PaCa-2), supplemented with penicillin (100 U/mL), streptomycin (100 μg/mL), and 10% heat-inactivated FBS at 37° C. in a humidified incubator with 5% CO2.
Method: Cells were plated at 2000 to 5000 cells/well density in 96-wells plate and cultured ON. Small molecules to be tested were added to the cells in the final concentration of 10 µM in the presence of 0.3% DMSO and 10% FBS, and incubated for 2-4 days at 37° C. in a humidified incubator with 5% CO2. For IC50 value determination, serial dilutions of compounds were added to cells under the same conditions.
Assay: At the end of the incubation period, cell cultures were fixed with a 50-50 mixture (v/v) acetone-methanol for 10 minutes at −20° C., followed by rehydration in PBS for 10 minutes at room temperature. DNA total content was determined by staining cells with DAPI (1 ug/ml) in PBS for 10 minutes at room temperature, followed by 3 washes with PBS. After staining, DAPI fluorescence was recorded (358 nm excitation/461 nm emission) with the 96-well plate reader Molecular Devices Spectramax M3; degree of small molecule-dependent proliferation inhibition was calculated from raw data.

The target of another assay is T1, KRas G12D mutant (Homo sapiens, UniProt P01116, G12D).
T1 construct: fused on or other part: His tag, used for capture on nickel-coated plates
Kind of assay: Ras GTP binding domain inhibition assay (Cy3-GTP/Cy5-GTP competition). The settings on record: at 20 μM. Summed up: (§1)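 First, His-tagged protein is coated on nickel wells overnight at 4 °C. Next, compound (20 μM single point or serial dilution) is added for 3 h at room temperature, with or without Sos exchange factor in the last hour. Finally, 100 nM labelled GTP binds for 45 min and retained signal is measured.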

The next assay has as its target Rac-1 (Homo sapiens, UniProt P63000). The description is as above. Summed up: as §1
The target in the next assay is Rho-A (Homo sapiens, UniProt P61586). The assay is described as above. An outline of the steps:
as §1

Setting [2] is: with SOS, read-out: KRas G12D mutant + SOS: % inh.
The mark [3] stands for this setting: without SOS, read-out: KRas G12D mutant: % inh.
[4] abbreviates: with SOS, read-out: Rac-1 + SOS: % inh.
Where [5] appears, read: without SOS, read-out: Rac-1: % inh.
The mark [6] stands for this setting: with SOS, read-out: Rho-A + SOS: % inh.
Setting [7] is: without SOS, read-out: Rho-A: % inh.

This passage reports inhibition and IC50 results from patent publication US20250296938A1, “Compounds that Interact with the Ras Superfamily for the Treatment of Cancers, Inflammatory Diseases, Rasopathies, and Fibrotic Disease” (SHY Therapeutics, LLC, priority 2018, published 2025).

Where two headings read alike, the source gives them in different places.

The term IC50 denotes the concentration needed to halve the response being measured. As to `COCCn1ccnc1-c1nc(O)c2scc(-c3ccc(OCC(C)C)nc3)c2n1` [drawing 633], in assay [1] (MIA PaCa-2 (Table 5A)), the inhibition at 10 µM lay in the range of 76 to 100% and the IC50 was under 500 nM.

For the compound `CO[C@H]1CC[C@@H](Nc2nc(-c3nccn3C)nc3sc(-c4cccc5[nH]ncc45)c(-c4ccccc4)c23)C1` [drawing 624], in assay [1] (MIA PaCa-2 (Table 5A)), the inhibition at 10 µM fell in the range of 76 to 100% and the IC50 was 750 to 1000 nM.

With `COC1CCN(c2nc(-c3nccn3C)nc3sc(Br)c(-c4ccccc4)c23)C1` (stereo not drawn) [drawing 583], the inhibition at 10 µM in assay [1] (2-4 days, MIA PaCa-2) lay in the range of 76 to 100%.

As for `Cc1c(-c2ccn(C)n2)sc2nc(-c3nccn3C)nc(NCCCS(C)(=O)=O)c12` [drawing 651], in assay [1] (MIA PaCa-2 (Table 5A)), the inhibition at 10 µM was determined as 0% and the IC50 is over 1000 nM.

As to `CO[C@H]1CC[C@@H](Nc2nc(-c3nccn3C)nc3sc(-c4ccn(C)n4)c(C)c23)C1` [drawing 650], in assay [1] (MIA PaCa-2 (Table 5A)), the inhibition at 10 µM was in the range of 76 to 100% and the IC50 is 750 to 1000 nM.

In the case of `COC1CCN(c2nc(-c3nccn3C)nc3sc(-c4ccncc4C)c(-c4ccccc4)c23)C1` (stereo not drawn) [drawing 576], the inhibition at 10 µM in assay [1] (2-4 days, MIA PaCa-2) fell in the range of 76 to 100%.

With `COc1cccc(-c2sc3nc(-c4nccn4C)nc(N[C@H]4C[C@@H](OC)C4)c3c2-c2ccccc2)c1F` [drawing 626], in assay [1] (MIA PaCa-2 (Table 5A)), the inhibition at 10 µM lay within 76 to 100% and the IC50 lay in the range of 500 to 749 nM.

As for `Cn1ccnc1-c1nc(O)c2scc(-c3ccccn3)c2n1` [drawing 529], in assay [1] (2-4 days, MIA PaCa-2), the inhibition at 10 µM was in the range of 76 to 100%.

On to `CN(C)CCOCCNc1nc(-c2nccn2C)nc2sc(-c3ccn(C)n3)c(-c3ccccc3)c12` [drawing 642], for which, in assay [1] (MIA PaCa-2 (Table 5A)), the inhibition at 10 µM is 76 to 100% and the IC50 was over 1000 nM.

For `COc1c(O)nc(-c2ccccn2)nc1Oc1ccccc1` [drawing 593], the inhibition at 10 µM in assay [1] (2-4 days, MIA PaCa-2) lay in the range of 76 to 100%.

As to `COc1cccc(Cn2ccnc2-c2nc(O)c3scc(-c4ccc(OCC(C)C)nc4)c3n2)c1` [drawing 635], in assay [1] (MIA PaCa-2 (Table 5A)), the inhibition at 10 µM lay within 76 to 100% and the IC50 was under 500 nM.

For `CC(C)COc1ccc(-c2csc3c(O)nc(-c4nccn4Cc4ccccn4)nc23)cn1` [drawing 1034], the inhibition at 20 µM at KRas G12D mutant (setting [2]) was in the range of 51 to 75%; at KRas G12D mutant (setting [3]), 76 to 100%; at Rac-1 (setting [4]), 76 to 100%; on Rac-1 (setting [5]), 76 to 100%; on Rho-A (setting [6]), 76 to 100%; on Rho-A (setting [7]) it was 76 to 100%.

On to `COCCn1ccnc1-c1nc(O)c2scc(-c3ccc(OCC(C)C)nc3)c2n1` [drawing 1033], for which the inhibition at 20 µM on KRas G12D mutant (setting [2]) is 51 to 75%; on KRas G12D mutant (setting [3]) it was 51 to 75%; at Rac-1 (setting [4]), 76 to 100%; at Rac-1 (setting [5]), 76 to 100%; on Rho-A (setting [6]) it was 76 to 100%; at Rho-A (setting [7]), 76 to 100%.

As to `COc1nscc1-c1sc2nc(-c3nccn3C)nc(N3CCC(OC)C3)c2c1-c1ccccc1` (stereo not drawn) [drawing 975], the inhibition at 20 µM on KRas G12D mutant (setting [2]) lay within 51 to 75%; at KRas G12D mutant (setting [3]), 26 to 50%; on Rac-1 (setting [4]) it was 26 to 50%; at Rac-1 (setting [5]), 26 to 50%; on Rho-A (setting [6]) it was 1 to 25%; on Rho-A (setting [7]), 1 to 25%.

On to `COc1cc(-c2sc3nc(-c4nccn4C)nc(N4CCC(OC)C4)c3c2-c2ccccc2)ccn1` (stereo not drawn) [drawing 980], for which the inhibition at 20 µM at KRas G12D mutant (setting [2]) lay in the range of 51 to 75%; at KRas G12D mutant (setting [3]), 51 to 75%; on Rac-1 (setting [4]), 1 to 25%; on Rac-1 (setting [5]) it was 26 to 50%; at Rho-A (setting [6]) it was 26 to 50%; at Rho-A (setting [7]), 1 to 25%.

Take `Cn1ccc(-c2sc3nc(-c4nccn4C)nc(N4CCC5(CCOC5)C4)c3c2-c2ccccc2)n1` (stereo not drawn) [drawing 992]: the inhibition at 20 µM was 1 to 25% on KRas G12D mutant (setting [2]); 26 to 50% on KRas G12D mutant (setting [3]); 26 to 50% at Rac-1 (setting [4]); 26 to 50% on Rac-1 (setting [5]); 76 to 100% at Rho-A (setting [6]); 0% at Rho-A (setting [7]).

As for `COc1c(O)nc(-c2ccccn2)nc1Oc1ccc(C(=O)N(C)C)cc1` [drawing 1014], the inhibition at 20 µM lay in the range of 26 to 50% at KRas G12D mutant (setting [2]); 51 to 75% at KRas G12D mutant (setting [3]); 51 to 75% on Rac-1 (setting [4]); 51 to 75% on Rac-1 (setting [5]); 51 to 75% on Rho-A (setting [6]); 51 to 75% at Rho-A (setting [7]).

For the compound `CO[C@H]1CC[C@@H](Nc2nc(-c3nccn3C)nc3sc(C(=O)N4CCCC4)c(-c4ccccc4)c23)C1` [drawing 1061], the inhibition at 20 µM on KRas G12D mutant (setting [2]) is 51 to 75%; on KRas G12D mutant (setting [3]) it was 51 to 75%; at Rac-1 (setting [4]), 76 to 100%; on Rac-1 (setting [5]), 76 to 100%; at Rho-A (setting [6]), 76 to 100%; at Rho-A (setting [7]) it was 76 to 100%.

As to `CO[C@H]1CC[C@@H](Nc2nc(-c3nccn3C)nc3sc(-c4ccn(C(C)C)n4)c(-c4ccccc4)c23)C1` [drawing 1047], the inhibition at 20 µM is 51 to 75% on KRas G12D mutant (setting [2]); 51 to 75% on KRas G12D mutant (setting [3]); 51 to 75% on Rac-1 (setting [4]); 51 to 75% at Rac-1 (setting [5]); 76 to 100% on Rho-A (setting [6]); 76 to 100% on Rho-A (setting [7]).
